Source: PubChem BioAssay (NCI)
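Protocol summary: plate cells (96-well), add compound at 5 concentrations, incubate 48 h, interpolate endpoints linearly. TGI: concentration producing complete growth inhibition.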

Assays:
Assay in all cases: DTP human tumour cell line panel, 48 h
786-0 renal = tested on: 786-0 renal
A498 renal = tested on: A498 renal
A549 NSCLC = tested on: A549 NSCLC
ACHN renal = tested on: ACHN renal
CAKI-1 renal = tested on: CAKI-1 renal
CCRF-CEM leukemia = tested on: CCRF-CEM leukemia
COLO 205 colon = tested on: COLO 205 colon
DLD-1 colon = tested on: DLD-1 colon
DMS 114 small cell lung = tested on: DMS 114 small cell lung
DMS 273 small cell lung = tested on: DMS 273 small cell lung
EKVX NSCLC = tested on: EKVX NSCLC
HCC-2998 colon = tested on: HCC-2998 colon
HCT-116 colon = tested on: HCT-116 colon
HCT-15 colon = tested on: HCT-15 colon
HL-60(TB) leukemia = tested on: HL-60(TB) leukemia
HOP-18 NSCLC = tested on: HOP-18 NSCLC
HOP-62 NSCLC = tested on: HOP-62 NSCLC
HOP-92 NSCLC = tested on: HOP-92 NSCLC
HT29 colon = tested on: HT29 colon
IGROV1 ovarian = tested on: IGROV1 ovarian
K-562 leukemia = tested on: K-562 leukemia
KM12 colon = tested on: KM12 colon
KM20L2 colon = tested on: KM20L2 colon
LOX IMVI melanoma = tested on: LOX IMVI melanoma
LXFL 529 NSCLC = tested on: LXFL 529 NSCLC
M14 melanoma = tested on: M14 melanoma
M19-MEL melanoma = tested on: M19-MEL melanoma
MALME-3M melanoma = tested on: MALME-3M melanoma
MOLT-4 leukemia = tested on: MOLT-4 leukemia
NCI-H226 lung = tested on: NCI-H226 lung
NCI-H23 lung = tested on: NCI-H23 lung
NCI-H460 lung = tested on: NCI-H460 lung
NCI-H522 lung = tested on: NCI-H522 lung
OVCAR-3 ovarian = tested on: OVCAR-3 ovarian
OVCAR-4 ovarian = tested on: OVCAR-4 ovarian
OVCAR-5 ovarian = tested on: OVCAR-5 ovarian
OVCAR-8 ovarian = tested on: OVCAR-8 ovarian
RPMI-8226 leukemia = tested on: RPMI-8226 leukemia
RXF 393 renal = tested on: RXF 393 renal
RXF-631 renal = tested on: RXF-631 renal
SF-268 CNS = tested on: SF-268 CNS
SF-295 CNS = tested on: SF-295 CNS
SF-539 CNS = tested on: SF-539 CNS
SK-MEL-2 melanoma = tested on: SK-MEL-2 melanoma
SK-MEL-28 melanoma = tested on: SK-MEL-28 melanoma
SK-MEL-5 melanoma = tested on: SK-MEL-5 melanoma
SK-OV-3 ovarian = tested on: SK-OV-3 ovarian
SN12C renal = tested on: SN12C renal
SNB-19 CNS = tested on: SNB-19 CNS
SNB-75 CNS = tested on: SNB-75 CNS
SNB-78 CNS = tested on: SNB-78 CNS
SR leukemia = tested on: SR leukemia
SW-620 colon = tested on: SW-620 colon
TK-10 renal = tested on: TK-10 renal
U251 CNS = tested on: U251 CNS
UACC-257 melanoma = tested on: UACC-257 melanoma
UACC-62 melanoma = tested on: UACC-62 melanoma
UO-31 renal = tested on: UO-31 renal
XF 498 CNS = tested on: XF 498 CNS
DU-145 prostate = tested on: DU-145 prostate
MCF7 breast = tested on: MCF7 breast
MDA-MB-231 breast = tested on: MDA-MB-231 breast
MDA-MB-435 = tested on: MDA-MB-435
MDA-N = tested on: MDA-N
PC-3 prostate = tested on: PC-3 prostate
T-47D breast = tested on: T-47D breast

CS(=O)(=O)OCCN1CCN(C(=O)c2cccc3c(Nc4ccc(S(N)(=O)=O)cc4)c4ccccc4nc23)CC1
TGI (786-0 renal): > 100 µM | TGI (A498 renal): > 100 µM | TGI (A549 NSCLC): > 100 µM | TGI (ACHN renal): > 100 µM | TGI (CAKI-1 renal): > 100 µM | TGI (CCRF-CEM leukemia): > 63 µM | TGI (COLO 205 colon): > 82.8 µM | TGI (DLD-1 colon): > 65.3 µM | TGI (DMS 114 small cell lung): > 57.6 µM | TGI (DMS 273 small cell lung): > 100 µM | TGI (EKVX NSCLC): > 100 µM | TGI (HCC-2998 colon): > 100 µM | TGI (HCT-116 colon): > 57.7 µM | TGI (HCT-15 colon): > 60.6 µM | TGI (HL-60(TB) leukemia): > 100 µM | TGI (HOP-18 NSCLC): > 100 µM | TGI (HOP-62 NSCLC): > 100 µM | TGI (HOP-92 NSCLC): > 100 µM | TGI (HT29 colon): > 100 µM | TGI (IGROV1 ovarian): > 100 µM | TGI (K-562 leukemia): > 81.1 µM | TGI (KM12 colon): > 100 µM | TGI (KM20L2 colon): > 100 µM | TGI (LOX IMVI melanoma): > 59.1 µM | TGI (LXFL 529 NSCLC): > 100 µM | TGI (M14 melanoma): > 100 µM | TGI (M19-MEL melanoma): > 100 µM | TGI (MALME-3M melanoma): > 100 µM | TGI (MOLT-4 leukemia): > 100 µM | TGI (NCI-H226 lung): > 100 µM | TGI (NCI-H23 lung): > 100 µM | TGI (NCI-H460 lung): > 100 µM | TGI (NCI-H522 lung): > 100 µM | TGI (OVCAR-3 ovarian): > 100 µM | TGI (OVCAR-4 ovarian): > 100 µM | TGI (OVCAR-5 ovarian): > 100 µM | TGI (OVCAR-8 ovarian): > 100 µM | TGI (RPMI-8226 leukemia): > 66.1 µM | TGI (RXF 393 renal): > 100 µM | TGI (RXF-631 renal): > 100 µM | TGI (SF-268 CNS): > 100 µM | TGI (SF-295 CNS): > 100 µM | TGI (SF-539 CNS): > 100 µM | TGI (SK-MEL-2 melanoma): > 100 µM | TGI (SK-MEL-28 melanoma): > 100 µM | TGI (SK-MEL-5 melanoma): > 100 µM | TGI (SK-OV-3 ovarian): > 100 µM | TGI (SN12C renal): > 100 µM | TGI (SNB-19 CNS): > 72.6 µM | TGI (SNB-75 CNS): > 100 µM | TGI (SNB-78 CNS): > 100 µM | TGI (SR leukemia): > 100 µM | TGI (SW-620 colon): > 55.8 µM | TGI (TK-10 renal): > 100 µM | TGI (U251 CNS): > 100 µM | TGI (UACC-257 melanoma): > 100 µM | TGI (UACC-62 melanoma): > 100 µM | TGI (UO-31 renal): > 100 µM | TGI (XF 498 CNS): > 100 µM

CCOCC(=O)N[C@H]1CCc2cc(OC)c(OC)c(OC)c2-c2ccc(SC)c(=O)cc21
TGI (786-0 renal): > 88 µM | TGI (A498 renal): 1.49 µM | TGI (A549 NSCLC): > 100 µM | TGI (ACHN renal): > 35.7 µM | TGI (CAKI-1 renal): > 45.8 µM | TGI (CCRF-CEM leukemia): > 70.2 µM | TGI (COLO 205 colon): < 0.01 µM | TGI (DLD-1 colon): > 100 µM | TGI (DMS 114 small cell lung): < 0.01 µM | TGI (DMS 273 small cell lung): > 100 µM | TGI (DU-145 prostate): 0.0582 µM | TGI (EKVX NSCLC): > 100 µM | TGI (HCT-116 colon): 2.39 µM | TGI (HCT-15 colon): > 18.1 µM | TGI (HL-60(TB) leukemia): < 0.0347 µM | TGI (HOP-18 NSCLC): > 100 µM | TGI (HOP-62 NSCLC): > 100 µM | TGI (HOP-92 NSCLC): > 100 µM | TGI (IGROV1 ovarian): > 100 µM | TGI (K-562 leukemia): 12.5 µM | TGI (KM12 colon): < 0.0631 µM | TGI (KM20L2 colon): < 0.01 µM | TGI (LOX IMVI melanoma): 69 µM | TGI (LXFL 529 NSCLC): > 100 µM | TGI (M14 melanoma): > 100 µM | TGI (M19-MEL melanoma): > 100 µM | TGI (MALME-3M melanoma): > 100 µM | TGI (MCF7 breast): > 51.4 µM | TGI (MDA-MB-231 breast): 2.31 µM | TGI (MDA-MB-435): < 0.01 µM | TGI (MDA-N): < 0.01 µM | TGI (MOLT-4 leukemia): > 62.6 µM | TGI (NCI-H226 lung): 0.398 µM | TGI (NCI-H23 lung): 9.64 µM | TGI (NCI-H460 lung): 0.398 µM | TGI (NCI-H522 lung): < 0.01 µM | TGI (OVCAR-3 ovarian): < 0.0658 µM | TGI (OVCAR-4 ovarian): > 100 µM | TGI (OVCAR-5 ovarian): > 100 µM | TGI (OVCAR-8 ovarian): 4.64 µM | TGI (PC-3 prostate): > 25.3 µM | TGI (RPMI-8226 leukemia): > 100 µM | TGI (RXF 393 renal): 2.33 µM | TGI (RXF-631 renal): > 46.4 µM | TGI (SF-268 CNS): > 90.9 µM | TGI (SF-295 CNS): 0.253 µM | TGI (SF-539 CNS): < 0.01 µM | TGI (SK-MEL-28 melanoma): > 100 µM | TGI (SK-MEL-5 melanoma): < 0.01 µM | TGI (SK-OV-3 ovarian): 0.398 µM | TGI (SN12C renal): > 100 µM | TGI (SNB-19 CNS): > 100 µM | TGI (SNB-75 CNS): 5.11 µM | TGI (SNB-78 CNS): > 100 µM | TGI (SR leukemia): > 100 µM | TGI (SW-620 colon): > 100 µM | TGI (T-47D breast): > 100 µM | TGI (TK-10 renal): > 100 µM | TGI (U251 CNS): > 76.8 µM | TGI (UACC-257 melanoma): > 100 µM | TGI (UACC-62 melanoma): > 100 µM | TGI (UO-31 renal): > 100 µM | TGI (XF 498 CNS): 4.49 µM
